Experiment: xn = mol fraction of the nth substance listed
Settings: 101 kPa, Liquid, Vibrating tube method

CCCCN(CCCC)CCCC [tributylamine] + Cc1ccccc1
mass density [kg/m3]
Settings | 293.15 K | 298.15 K | 303.15 K | 313.15 K | 323.15 K | 333.15 K
x1 = 0.0818 | 851.2 | 846.71 | 842.2 | 833.14 | 824.01 | 814.79
x1 = 0.1626 | 838.57 | 834.2 | 829.81 | 821 | 812.13 | 803.18
x1 = 0.2401 | 828.4 | 824.14 | 819.86 | 811.26 | 802.6 | 793.86
x1 = 0.3243 | 819.07 | 814.89 | 810.71 | 802.29 | 793.83 | 785.3
x1 = 0.3987 | 811.93 | 807.83 | 803.72 | 795.46 | 787.15 | 778.78
x1 = 0.4789 | 805.28 | 801.25 | 797.2 | 789.08 | 780.92 | 772.69
x1 = 0.5592 | 799.41 | 795.44 | 791.46 | 783.47 | 775.43 | 767.34
x1 = 0.6414 | 794.14 | 790.22 | 786.3 | 778.42 | 770.5 | 762.52
x1 = 0.7238 | 789.42 | 785.56 | 781.69 | 773.92 | 766.11 | 758.24
x1 = 0.7985 | 785.62 | 781.8 | 777.97 | 770.28 | 762.56 | 754.78
x1 = 0.8802 | 781.79 | 778.01 | 774.23 | 766.64 | 759 | 751.31
x1 = 0.8991 | 780.96 | 777.2 | 773.42 | 765.85 | 758.23 | 750.57

CCCCN(CCCC)CCCC [tributylamine] + O=[N+]([O-])c1ccccc1
mass density [kg/m3]
Settings | 293.15 K | 298.15 K | 303.15 K | 313.15 K | 323.15 K | 333.15 K
x1 = 0.0806 | 1132.44 | 1127.65 | 1122.87 | 1113.29 | 1103.7 | 1094.1
x1 = 0.1692 | 1068.2 | 1063.58 | 1058.97 | 1049.72 | 1040.46 | 1031.17
x1 = 0.2426 | 1023.24 | 1018.75 | 1014.26 | 1005.27 | 996.24 | 987.2
x1 = 0.3259 | 979.47 | 975.11 | 970.74 | 961.98 | 953.2 | 944.4
x1 = 0.3993 | 945.96 | 941.69 | 937.43 | 928.86 | 920.27 | 911.63
x1 = 0.4829 | 912.69 | 908.52 | 904.33 | 895.96 | 887.56 | 879.12
x1 = 0.5607 | 885.41 | 881.32 | 877.22 | 869.01 | 860.76 | 852.46
x1 = 0.6392 | 861.09 | 857.07 | 853.04 | 844.97 | 836.86 | 828.72
x1 = 0.7176 | 839.19 | 835.25 | 831.29 | 823.36 | 815.4 | 807.4
x1 = 0.7976 | 819.27 | 815.39 | 811.5 | 803.7 | 795.86 | 787.99
x1 = 0.8779 | 801.19 | 797.38 | 793.55 | 785.88 | 778.17 | 770.42
x1 = 0.9546 | 785.56 | 781.8 | 778.03 | 770.48 | 762.89 | 755.25

CCCCN(CCCC)CCCC [tributylamine] + Cc1cccc(C)c1
mass density [kg/m3]
Settings | 293.15 K | 298.15 K | 303.15 K | 313.15 K | 323.15 K | 333.15 K
x1 = 0.0803 | 851.21 | 846.99 | 842.76 | 834.27 | 825.72 | 817.11
x1 = 0.1564 | 840.57 | 836.42 | 832.26 | 823.89 | 815.48 | 806.98
x1 = 0.2405 | 830.31 | 826.21 | 822.11 | 813.87 | 805.59 | 797.24
x1 = 0.3223 | 821.61 | 817.57 | 813.53 | 805.4 | 797.23 | 788.99
x1 = 0.3983 | 814.42 | 810.43 | 806.43 | 798.4 | 790.32 | 782.19
x1 = 0.4784 | 807.64 | 803.69 | 799.74 | 791.81 | 783.83 | 775.79
x1 = 0.5497 | 802.22 | 798.31 | 794.4 | 786.54 | 778.64 | 770.68
x1 = 0.6375 | 796.16 | 792.3 | 788.42 | 780.65 | 772.84 | 764.97
x1 = 0.7175 | 791.21 | 787.38 | 783.55 | 775.85 | 768.1 | 760.32
x1 = 0.7958 | 786.77 | 782.98 | 779.18 | 771.54 | 763.87 | 756.15
x1 = 0.8823 | 782.31 | 778.55 | 774.78 | 767.21 | 759.6 | 751.95
x1 = 0.9616 | 778.58 | 774.84 | 771.1 | 763.6 | 756.05 | 748.45

CCCCN(CCCC)CCCC [tributylamine] + CCc1ccccc1
mass density [kg/m3]
Settings | 293.15 K | 298.15 K | 303.15 K | 313.15 K | 323.15 K | 333.15 K
x1 = 0.0829 | 852.96 | 848.66 | 844.35 | 835.7 | 827 | 818.22
x1 = 0.1602 | 841.78 | 837.56 | 833.34 | 824.84 | 816.3 | 807.68
x1 = 0.2404 | 831.68 | 827.53 | 823.38 | 815.04 | 806.64 | 798.19
x1 = 0.3189 | 823 | 818.92 | 814.83 | 806.62 | 798.36 | 790.04
x1 = 0.3972 | 815.35 | 811.33 | 807.3 | 799.2 | 791.06 | 782.85
x1 = 0.4788 | 808.26 | 804.3 | 800.32 | 792.33 | 784.3 | 776.21
x1 = 0.572 | 801.08 | 797.17 | 793.25 | 785.37 | 777.45 | 769.48
x1 = 0.6382 | 796.47 | 792.6 | 788.71 | 780.91 | 773.07 | 765.18
x1 = 0.7192 | 791.35 | 787.52 | 783.67 | 775.96 | 768.2 | 760.39
x1 = 0.8022 | 786.64 | 782.83 | 779.02 | 771.38 | 763.69 | 755.96
x1 = 0.8765 | 782.75 | 778.98 | 775.21 | 767.62 | 760 | 752.32
x1 = 0.9556 | 778.92 | 775.18 | 771.44 | 763.92 | 756.36 | 748.76

— the NIST ThermoML archive (doi:10.1016/j.jct.2011.10.027)
